Experimental data reported in patent US11613538B2, “Method of inhibiting or reducing a viral infection” (PTC Therapeutics, Inc., priority 2009, dated 2023).

System: hypoxia-induced VEGF production in HeLa cells
Assay: cells
Type: cell-based, human
Conditions: Homo sapiens, HeLa

SMILES	EC50 [nM]
O=C(OC1CCCC1)N1CCc2c([nH]c3ccc(Cl)cc23)[C@@H]1c1ccc(OC2CCOCC2)cc1 [Compound 1253]	< 8
O[C@@H](COc1ccc([C@H]2c3[nH]c4ccc(Cl)cc4c3CCN2c2ncccn2)cc1)CN1CCOCC1 [Compound 1254]	< 8
O=C(Oc1ccc(Cl)cc1)N1CCc2c([nH]c3ccc(Cl)cc23)[C@@H]1c1ccc(OCCCNC(CO)(CO)CO)cc1 [Compound 1255]	40 to 200
OCCCOc1ccc([C@H]2c3[nH]c4ccc(Cl)cc4c3CCN2c2ncccn2)cc1 [Compound 1256]	< 8
O=C(Oc1ccc(Cl)cc1)N1CCc2c([nH]c3ccc(Cl)cc23)[C@@H]1c1ccc(OCCCNCCO)cc1 [Compound 1257]	8 to 40
O=C(Oc1ccc(Cl)cc1)N1CCc2c([nH]c3ccc(Cl)cc23)[C@@H]1c1ccc(OCCCN(CCO)CCO)cc1 [Compound 1258]	< 8
CC1(C)OC[C@@H](COc2ccc([C@H]3c4[nH]c5ccc(Cl)cc5c4CCN3C(=O)Oc3ccc(Cl)cc3)cc2)O1 [Compound 1260]	< 8
CCOC(=O)N1CCc2c([nH]c3ccc(Cl)cc23)[C@@H]1c1ccc(OC[C@@H]2COC(C)(C)O2)cc1 [Compound 1261]	< 8
C=CCOc1ccc([C@H]2c3[nH]c4ccc(Cl)cc4c3CCN2C(=O)OC2CCCC2)cc1 [Compound 1262]	< 8
CCOC(=O)N1CCc2c([nH]c3ccc(Cl)cc23)[C@@H]1c1ccc(OCCCNC2CC2)cc1 [Compound 1264]	8 to 40
CCOC(=O)N1CCc2c([nH]c3ccc(Cl)cc23)C1c1ccc(OC)cc1F (stereo not shown) [Compound 1268]	< 8
CCOC(=O)N1CCc2c([nH]c3ccc(Cl)cc23)[C@@H]1c1ccc(OCCC(O)CNC(C)=O)cc1 (stereo partly shown) [Compound 1270]	8 to 40
CCOC(=O)N1CCc2c([nH]c3ccc(Cl)cc23)[C@@H]1c1ccc(OCCC(O)CNC(=O)COC)cc1 (stereo partly shown) [Compound 1271]	8 to 40
CCOC(=O)N1CCc2c([nH]c3ccc(Cl)cc23)[C@@H]1c1ccc(OCCC(O)CN2CCOCC2)cc1 (stereo partly shown) [Compound 1272]	< 8
CCOC(=O)N1CCc2c([nH]c3ccc(Cl)cc23)[C@@H]1c1ccc(OCCC(O)CN(CCO)CCO)cc1 (stereo partly shown) [Compound 1273]	8 to 40
CCOC(=O)N1CCc2c([nH]c3ccc(Cl)cc23)[C@@H]1c1ccc(OCCC(O)Cn2ccnn2)cc1 (stereo partly shown) [Compound 1274]	< 8
CCOC(=O)N1CCc2c([nH]c3ccc(Cl)cc23)[C@@H]1c1ccc(OCCC(O)Cn2nccn2)cc1 (stereo partly shown) [Compound 1275]	< 8
O=C(Oc1ccc(Cl)cc1)N1CCc2c([nH]c3ccc(Cl)cc23)[C@@H]1c1ccc(OCCC(O)CN2CCOCC2)cc1 (stereo partly shown) [Compound 1279]	< 8
O=C(Oc1ccc(Cl)cc1)N1CCc2c([nH]c3ccc(Cl)cc23)[C@@H]1c1ccc(OCCC(O)CN(CCO)CCO)cc1 (stereo partly shown) [Compound 1280]	8 to 40
CCOC(=O)N1CCc2c([nH]c3ccc(Cl)cc23)[C@@H]1c1ccc(OCC(C)(CO)CO)cc1 [Compound 1283]	< 8
CCOC(=O)N1CCc2c([nH]c3ccc(Cl)cc23)[C@@H]1c1ccc(OCC2(C)COC(C)(C)OC2)cc1 [Compound 1284]	< 8
O=C(OC1CCCC1)N1CCc2c([nH]c3ccc(Cl)cc23)[C@@H]1c1ccc(OCCCO)cc1 [Compound 1285]	< 8
O=C(OC1CCCC1)N1CCc2c([nH]c3ccc(Cl)cc23)[C@@H]1c1ccc(O)cc1 [Compound 1286]	40 to 200
CCOC(=O)N1CCc2c([nH]c3ccc(Cl)cc23)[C@@H]1c1ccc(OCCC(O)Cn2cncn2)cc1 (stereo partly shown) [Compound 1287]	8 to 40
Cc1ccc(OC(=O)N2CCc3c([nH]c4ccc(Cl)cc34)[C@@H]2c2ccc(OCCC(O)CN(CCO)CCO)cc2)cc1 (stereo partly shown) [Compound 1288]	8 to 40

SMILES	EC50 [nM]
CC#CCOC(=O)N1CCc2c([nH]c3ccc(Cl)cc23)[C@@H]1c1ccc(OCCCCl)cc1 [Compound 1294]	< 8
CC(C)OC(=O)N1CCc2c([nH]c3ccc(Cl)cc23)[C@@H]1c1ccc(OCC[C@H](O)CO)cc1 [Compound 1295]	< 8
CC(C)OC(=O)N1CCc2c([nH]c3ccc(Cl)cc23)[C@@H]1c1ccc(OCC(C)(CO)CO)cc1 [Compound 1296]	8 to 40
COc1ccc([C@H]2C3Nc4ccc(Cl)cc4C3CCN2C(=O)OC2CCCC2)cc1 (stereo partly shown) [Compound 1298]	< 8
Cc1ccc(OC(=O)N2CCC3c4cc(Cl)ccc4NC3[C@@H]2c2ccc(OCCC(O)CN3CCOCC3)cc2)cc1 (stereo partly shown) [Compound 1302]	40 to 200
O[C@@H](CCOc1ccc([C@H]2c3[nH]c4ccc(Cl)cc4c3CCN2c2ncccn2)cc1)CN1CCOCC1 [Compound 1303]	< 8
O[C@@H](CCOc1ccc([C@H]2c3[nH]c4ccc(Cl)cc4c3CCN2c2ncccn2)cc1)CN1CCCCC1 [Compound 1304]	< 8
CCN(CC)C[C@@H](O)CCOc1ccc([C@H]2c3[nH]c4ccc(Cl)cc4c3CCN2c2ncccn2)cc1 [Compound 1305]	8 to 40
CN1CCN(C[C@@H](O)CCOc2ccc([C@H]3c4[nH]c5ccc(Cl)cc5c4CCN3c3ncccn3)cc2)CC1 [Compound 1306]	8 to 40
CN1CCN(C[C@H](O)COc2ccc([C@H]3c4[nH]c5ccc(Cl)cc5c4CCN3c3ncccn3)cc2)CC1 [Compound 1308]	< 8
CCN(CC)C[C@H](O)COc1ccc([C@H]2c3[nH]c4ccc(Cl)cc4c3CCN2c2ncccn2)cc1 [Compound 1309]	8 to 40
O[C@H](COc1ccc([C@H]2c3[nH]c4ccc(Cl)cc4c3CCN2c2ncccn2)cc1)CN1CCCCC1 [Compound 1310]	8 to 40
CCN(CC)C[C@@H](O)COc1ccc([C@H]2c3[nH]c4ccc(Cl)cc4c3CCN2c2ncccn2)cc1 [Compound 1311]	40 to 200
CN1CCN(C[C@@H](O)COc2ccc([C@H]3c4[nH]c5ccc(Cl)cc5c4CCN3c3ncccn3)cc2)CC1 [Compound 1312]	8 to 40
O[C@@H](COc1ccc([C@H]2c3[nH]c4ccc(Cl)cc4c3CCN2c2ncccn2)cc1)CN1CCCCC1 [Compound 1313]	8 to 40
CC1(C)OC[C@H](CCOc2ccc([C@H]3c4[nH]c5ccc(Cl)cc5c4CCN3C(=O)OCC3CC3)cc2)O1 [Compound 1314]	< 8
CC1(C)OC[C@H](CCOc2ccc([C@H]3c4[nH]c5ccc(Cl)cc5c4CCN3C(=O)OCC3CCC3)cc2)O1 [Compound 1315]	< 8
CC1(C)OC[C@H](CCOc2ccc([C@H]3c4[nH]c5ccc(Cl)cc5c4CCN3C(=O)OC3CCCC3)cc2)O1 [Compound 1316]	< 8
CC1(COc2ccc([C@H]3c4[nH]c5ccc(Cl)cc5c4CCN3C(=O)OCC3CC3)cc2)COC(C)(C)OC1 [Compound 1317]	< 8
CC1(COc2ccc([C@H]3c4[nH]c5ccc(Cl)cc5c4CCN3C(=O)OCC3CCC3)cc2)COC(C)(C)OC1 [Compound 1318]	< 8
CC1(COc2ccc([C@H]3c4[nH]c5ccc(Cl)cc5c4CCN3C(=O)OC3CCCC3)cc2)COC(C)(C)OC1 [Compound 1319]	< 8
O=C(OC1CCCC1)N1CCc2c([nH]c3ccc(Cl)cc23)[C@@H]1c1ccc(OCC[C@H](O)CO)cc1 [Compound 1320]	< 8
CC(CO)(CO)COc1ccc([C@H]2c3[nH]c4ccc(Cl)cc4c3CCN2C(=O)OC2CCCC2)cc1 [Compound 1321]	< 8
O=C(OC1CCCC1)N1CCc2c([nH]c3ccc(Cl)cc23)[C@@H]1c1ccc(OC[C@H](O)CO)cc1 [Compound 1322]	< 8
